Test results from ChEMBL document CHEMBL1126756, “Studies on neurokinin antagonists. 3. Design and structure-activity relationships of new branched tripeptides N alpha-(substituted L-aspartyl, L-ornithyl, or L-lysyl)-N-methyl-N-(phenylmethyl)-L-phenylalaninamides as substance P antagonists” (J Med Chem, 1993).
Activity calls are given as the source filed them. The calls are words filed in the database; no cut-off is given here.

Experiments:
[1] = biological target: Substance-P receptor (Cavia porcellus) (UniProt P30547); assay: Tested for percent inhibition against [3H]SP (substance P) binding against NK1 receptor relative to compound 7 at 100 ng/mL; No inhibition
[2] = biological target: Substance-P receptor (Cavia porcellus) (UniProt P30547); assay: Tested for percent inhibition against [3H]SP (substance P) binding against NK1 receptor relative to compound 5 (100); conditions: concentration not given here
[3] = biological target: Substance-P receptor (Cavia porcellus) (UniProt P30547); assay: Percent inhibition of [3H]-SP (substance P) binding to NK1 receptor relative to compound 7 (100); parameters: concentration or dose not given beside the values; conditions: concentration not given here
Substance-P receptor = Substance-P receptor (Cavia porcellus, UniProt P30547); assay: Tested for inhibition against [3H]-SP (substance P) (1 nM) binding to NK1 receptor in guinea pig lung membranes; type: cell membranes, Membrane
[4] = biological target: Substance-P receptor (Cavia porcellus) (UniProt P30547); assay: Tested for percent inhibition against [3H]-SP (substance P) binding against NK1 receptor relative to compound 5 at 100 ng/mL; No inhibition
[5] = biological target: Substance-P receptor (Cavia porcellus) (UniProt P30547); assay: Tested for percent inhibition against [3H]-SP (substance P) binding against NK1 receptor; conditions: concentration not given here
[6] = biological target: Substance-P receptor (Cavia porcellus) (UniProt P30547); assay: Tested for percent inhibition against [3H]SP (substance P) binding against NK1 receptor relative to compound; conditions: concentration not given here

Sequence of Substance-P receptor (Cavia porcellus) (P30547 whole entry): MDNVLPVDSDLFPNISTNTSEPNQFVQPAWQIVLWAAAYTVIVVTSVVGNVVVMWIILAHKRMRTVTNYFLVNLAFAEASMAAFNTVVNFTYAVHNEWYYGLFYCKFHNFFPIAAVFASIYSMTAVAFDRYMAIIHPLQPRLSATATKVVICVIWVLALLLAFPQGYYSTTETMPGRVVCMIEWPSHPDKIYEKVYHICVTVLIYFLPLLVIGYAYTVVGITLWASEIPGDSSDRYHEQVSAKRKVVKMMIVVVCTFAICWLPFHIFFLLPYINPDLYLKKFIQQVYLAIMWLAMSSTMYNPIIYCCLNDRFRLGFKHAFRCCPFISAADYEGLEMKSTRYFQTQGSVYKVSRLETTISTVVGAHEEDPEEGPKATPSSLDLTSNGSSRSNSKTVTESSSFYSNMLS
Sequence of Substance-P receptor (P30547 whole entry): as above

With `CC(=O)NC(C(=O)NCCCCC(NC(=O)OC(C)(C)C)C(=O)N[C@H](Cc1ccccc1)C(=O)N(C)Cc1ccccc1)C(C)O` (stereo partly drawn) the inhibition [1] was “inactive”.

An inhibition [2] of 100% was found for `CN(Cc1ccccc1)C(=O)[C@@H](Cc1ccccc1)NC(=O)C(CC(=O)NC(CO)C(N)=O)NC(=O)c1c[nH]c2ccccc12` (stereo partly drawn) in this work.

An inhibition [3] of 82% was found for `CC(=O)NCCC(=O)NCCCCC(NC(=O)c1c[nH]c2ccccc12)C(=O)N[C@H](Cc1ccccc1)C(=O)N(C)Cc1ccccc1` (stereo partly drawn) in this work.

An IC50 (Substance-P receptor) of 21 nM was found for `CC(=O)NC(C(=O)NCCCC(NC(=O)c1c[nH]c2ccccc12)C(=O)N[C@H](Cc1ccccc1)C(=O)N(C)Cc1ccccc1)[C@@H](C)O` (stereo partly drawn) in this work.

With `CC(=O)NC(CCCCNC(=O)C(NC(C)=O)C(C)O)C(=O)N[C@H](Cc1ccccc1)C(=O)N(C)Cc1ccccc1` (stereo partly drawn) the inhibition [1] was “inactive”.

An inhibition [3] of 44% was found for `CN(Cc1ccccc1)C(=O)[C@@H](Cc1ccccc1)NC(=O)C(CCCCNC(=O)C(C)(C)C)NC(=O)c1c[nH]c2ccccc12` (stereo partly drawn) in this work.

An inhibition [2] of 56% was found for `CN(Cc1ccccc1)C(=O)[C@@H](Cc1ccccc1)NC(=O)C(CC(=O)NC(CCC(N)=O)C(N)=O)NC(=O)c1c[nH]c2ccccc12` (stereo partly drawn) in this work.

An inhibition [3] of 98% was found for `CC(=O)NCC(=O)NCCCCC(NC(=O)c1c[nH]c2ccccc12)C(=O)N[C@H](Cc1ccccc1)C(=O)N(C)Cc1ccccc1` (stereo partly drawn) in this work.

With `CC(=O)N[C@H](C(=O)NCCCC[C@@H](NC(=O)c1c[nH]c2ccccc12)C(=O)N[C@H](Cc1ccccc1)C(=O)N(C)Cc1ccccc1)[C@@H](C)O` the inhibition [1] was “inactive”.

`CC(=O)NC(C(=O)NCCCCC(NC(=O)c1ccccc1)C(=O)N[C@H](Cc1ccccc1)C(=O)N(C)Cc1ccccc1)C(C)O` (stereo partly drawn) was tested, and the inhibition [1] was “inactive”.

`CC(O)C(NC(=O)CC(NC(=O)OC(C)(C)C)C(=O)N[C@H](Cc1ccccc1)C(=O)N(C)Cc1ccccc1)C(N)=O` (stereo partly drawn) was tested, and the inhibition [4] was “inactive”.

For `CC(=O)NC(C(=O)NCCCCC(N)C(=O)N[C@H](Cc1ccccc1)C(=O)N(C)Cc1ccccc1)C(C)O` (stereo partly drawn), the inhibition [1] was “inactive”.

An inhibition [3] of 136% was found for `CC(=O)NC(CO)C(=O)NCCCCC(NC(=O)c1c[nH]c2ccccc12)C(=O)N[C@H](Cc1ccccc1)C(=O)N(C)Cc1ccccc1` (stereo partly drawn) in this work.

An inhibition [3] of 53% was found for `CN(Cc1ccccc1)C(=O)[C@@H](Cc1ccccc1)NC(=O)C(CCCCNC(=O)N1CCOCC1)NC(=O)c1c[nH]c2ccccc12` (stereo partly drawn) in this work.

An inhibition [3] of 87% was found for `CC(=O)NCCCCC(NC(=O)c1c[nH]c2ccccc12)C(=O)N[C@H](Cc1ccccc1)C(=O)N(C)Cc1ccccc1` (stereo partly drawn) in this work.

An inhibition [2] of 96% was found for `CN(Cc1ccccc1)C(=O)[C@@H](Cc1ccccc1)NC(=O)C(CC(=O)NC(CCC(N)=O)C(=O)NC(C)(C)C)NC(=O)c1c[nH]c2ccccc12` (stereo partly drawn) in this work.

An inhibition [3] of 144% was found for `CN(C)C(=O)NCCCCC(NC(=O)c1c[nH]c2ccccc12)C(=O)N[C@H](Cc1ccccc1)C(=O)N(C)Cc1ccccc1` (stereo partly drawn) in this work.

An IC50 (Substance-P receptor) of 19 nM was found for `CC(=O)NC(C(=O)NCCCCC(NC(=O)c1cc2ccccc2[nH]1)C(=O)N[C@H](Cc1ccccc1)C(=O)N(C)Cc1ccccc1)[C@@H](C)O` (stereo partly drawn) in this work.

An inhibition [3] of 98% was found for `CC(O)C(NC(=O)OC(C)(C)C)C(=O)NCCCCC(NC(=O)c1c[nH]c2ccccc12)C(=O)N[C@H](Cc1ccccc1)C(=O)N(C)Cc1ccccc1` (stereo partly drawn) in this work.

An IC50 (Substance-P receptor) of 13 nM and an inhibition [5] of 100% were found for `CC(=O)N[C@H](C(=O)NCCCC[C@H](NC(=O)c1c[nH]c2ccccc12)C(=O)N[C@H](Cc1ccccc1)C(=O)N(C)Cc1ccccc1)[C@@H](C)O` in this work.

For `CC(O)C(NC(=O)CC(N)C(=O)N[C@H](Cc1ccccc1)C(=O)N(C)Cc1ccccc1)C(N)=O` (stereo partly drawn), the inhibition [4] was “inactive”.

An IC50 (Substance-P receptor) of 54 nM was found for `C[C@@H](O)C(NC(=O)CC(NC(=O)c1cc2ccccc2[nH]1)C(=O)N[C@H](Cc1ccccc1)C(=O)N(C)Cc1ccccc1)C(N)=O` (stereo partly drawn) in this work.

An inhibition [3] of 22% was found for `CN(Cc1ccccc1)C(=O)[C@@H](Cc1ccccc1)NC(=O)C(CCCCNC(=O)OCc1ccccc1)NC(=O)c1cc2ccccc2[nH]1` (stereo partly drawn) in this work.

An inhibition [3] of 91% was found for `CN(Cc1ccccc1)C(=O)[C@@H](Cc1ccccc1)NC(=O)C(CCCCN)NC(=O)c1c[nH]c2ccccc12` (stereo partly drawn) in this work.

An IC50 (Substance-P receptor) of 23 nM and an inhibition [6] of 100% were found for `C[C@@H](O)C(NC(=O)CC(NC(=O)c1c[nH]c2ccccc12)C(=O)N[C@H](Cc1ccccc1)C(=O)N(C)Cc1ccccc1)C(N)=O` (stereo partly drawn) in this work.

An inhibition [2] of 128% was found for `CN(Cc1ccccc1)C(=O)[C@@H](Cc1ccccc1)NC(=O)C(CC(=O)NCC(N)=O)NC(=O)c1c[nH]c2ccccc12` (stereo partly drawn) in this work.
